Our source for the IC50 values is patent publication US8722671B2, “Isoquinoline derivatives” (Sanofi, priority 2005, dated 2014).

The target of the assay is T1, ROCKII or ROKα (Homo sapiens, UniProt O75116).
T1 construct: purchased Upstate 14-451
T1 sequence (O75116 11-552 limits assumed): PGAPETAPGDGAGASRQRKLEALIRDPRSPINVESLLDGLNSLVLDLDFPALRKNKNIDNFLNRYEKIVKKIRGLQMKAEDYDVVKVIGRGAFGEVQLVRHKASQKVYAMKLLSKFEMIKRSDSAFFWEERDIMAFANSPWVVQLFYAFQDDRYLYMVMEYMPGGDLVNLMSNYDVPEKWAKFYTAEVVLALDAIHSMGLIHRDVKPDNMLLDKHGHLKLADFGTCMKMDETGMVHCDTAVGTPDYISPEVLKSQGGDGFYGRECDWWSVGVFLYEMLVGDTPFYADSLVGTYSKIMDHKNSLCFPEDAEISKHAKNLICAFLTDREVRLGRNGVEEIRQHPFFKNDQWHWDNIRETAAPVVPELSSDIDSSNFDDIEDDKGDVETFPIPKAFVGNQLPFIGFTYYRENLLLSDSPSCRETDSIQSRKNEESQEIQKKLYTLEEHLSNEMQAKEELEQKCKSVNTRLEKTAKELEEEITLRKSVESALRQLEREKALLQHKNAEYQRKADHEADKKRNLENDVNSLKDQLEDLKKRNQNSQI
Nature of the assay: Determination of Rho kinase inhibition (33P-ATP Streptavidin Flash Plate assay). The note with it: ATP 40 μM, activity denoted as pIC50 class. Format: biochemical. As for the experimental part: Determination of Rho Kinase Inhibition
To measure Rho-kinase inhibition, IC50 values were determined according to the following protocol:
Buffer: 25 mM Tris pH7.5; 0.02% BSA; 5% Glycerol; 0.008% Triton X100; 2% DMSO, 1 mM DTT; 1 mM MgCl2; 0.5 μCi/well γ^33P ATP
Enzyme: ROCKII or ROKα) (Upstate, Catalog #14-451 Lot #24880U) 0.1 ng/μl
Final concentration of ATP in reaction mixture 40 μM
Biotinylated substrate, diluted to 0.25 μM with buffer described above (without ATP)
• 1. 10 μl Tris buffer (±Inhibitor) • 2. Add 30 μl of enzyme solution • 3. Start the reaction with 30 μL of mix substrate/ATP/ATP33 • 4. Incubate for 20 min at room temperature • 5. Stop reaction with 30 μL of 50 mM EDTA • 6. Transfer 50 μL of stopped solution to Streptavidin Flash Plate plus, Perkin Elmer, SMP 103A • 7. Incubate for 30 min at RT • 8. Wash 4 times with 300 μl of PBS/0.1% Tween 20 • 9. Radioactivity in the well was determined
Take `COc1cc(Nc2cc3cc(OC4CCNCC4)ccc3cn2)cc(OC)c1OC` [Compound 228]: the IC50 entry is listed as “++++ (6.0≦pIC50)”.

With `O=C(O)C(F)(F)F.c1ccc2oc(-c3c(OC4CCNCC4)ccc4cnccc34)cc2c1` [Compound 59], the IC50 result was “++++ (6.0≦pIC50)”.

Turning to `Cc1cc(OC2CCNCC2)c(C)c2ccncc12.Cl` [Compound 133], the IC50 result was “++++ (6.0≦pIC50)”.

On to `COc1cccc(Nc2cc3c(C4CC4)c(OC4CCNCC4)ccc3cn2)c1.Cl` [Compound 265], for which the IC50 entry was “+++ (5.0≦pIC50<6.0)”.

Take `c1ccc(Cc2c(OC3CCNCC3)ccc3cnccc23)cc1` [Compound 29, 5-Benzyl-6-(piperidin-4-yloxy)-isoquinoline]: the IC50 result is given as “+++ (5.0≦pIC50<6.0)”.

Consider `COc1ccc(-c2c(OC3CCNCC3)ccc3cnccc23)cc1N` [Compound 72], for which the IC50 result is reported as “++++ (6.0≦pIC50)”.

As to `c1ccc(-c2cc3cnccc3cc2OC2CCNCC2)cc1` [Compound 81], the IC50 entry was “++++ (6.0≦pIC50)”.

With `OCc1cccc(-c2c(OC3CCNCC3)ccc3cnccc23)c1` [Compound 67], the IC50 entry was “+++ (5.0≦pIC50<6.0)”.

With `Clc1cc2cnccc2c(Cl)c1OC1CCNCC1` [Compound 378, 5,7-Dichloro-6-(piperidin-4-yloxy)-isoquinoline], the IC50 result is on record as “++++ (6.0≦pIC50)”.

On to `Cl.Clc1cc(OC2CCNCC2)cc2ccncc12` [Compound 269, 8-Chloro-6-(Piperidin-4-yloxy)-isoquinoline hydrochloride], for which the IC50 result was “++++ (6.0≦pIC50)”.

`O=C(O)C(F)(F)F.c1ccc(C(CN2CCC(Oc3ccc4cnccc4c3)CC2)c2ccccc2)cc1` [Compound 100]: the IC50 entry is on record as “+++ (5.0≦pIC50<6.0)”.

With `Cl.Ic1c(OC2CCNCC2)ccc2cnccc12` [Compound 44], the IC50 result is listed as “++++ (6.0≦pIC50)”.

Consider `Cl.Clc1cncc2ccc(OC3CCNCC3)cc12` [Compound 156, 4-Chloro-6-(piperidin-4-yloxy)-isoquinoline hydrochloride], for which the IC50 result is on record as “++++ (6.0≦pIC50)”.

Take `CCc1cncc2ccc(OC3CCNCC3)cc12.Cl` [Compound 266, 4-Ethyl-6-(piperidin-4-yloxy)-isoquinoline]: the IC50 entry was “+++ (5.0≦pIC50<6.0)”.

Take `O=C(O)C(F)(F)F.c1cc2cc(OC3CCCNC3)ccc2cn1` (stereo not drawn) [Compound 145]: the IC50 result is “+++ (5.0≦pIC50<6.0)”.

Regarding `COc1ccc2cc(CN3CCC(Oc4ccc5cnccc5c4)CC3)ccc2c1.O=C(O)C(F)(F)F` [Compound 120], the IC50 result was “++++ (6.0≦pIC50)”.

Regarding `FC(F)(F)CCN1CCC(Oc2ccc3cnccc3c2)CC1.O=C(O)C(F)(F)F` [Compound 111], the IC50 result is “+++ (5.0≦pIC50<6.0)”.

As to `Cl.c1cc2c(cc1Nc1cc3cc(OC4CCNCC4)ccc3cn1)OCO2` [Compound 261], the IC50 result is reported as “++++ (6.0≦pIC50)”.

In the case of `CN1CCCC(COc2ccc3cnccc3c2Br)C1.O=C(O)C(F)(F)F` (stereo not drawn) [Compound 138], the IC50 entry is recorded as “++++ (6.0≦pIC50)”.

With `Brc1c(OC2CCNCC2)ccc2cnccc12.Cl` [Compound 41], the IC50 entry is “++++ (6.0≦pIC50)”.

Turning to `Cc1c(OC2CCNCC2)cc2ccncc2c1C.Cl` [Compound 134], the IC50 entry is “+++ (5.0≦pIC50<6.0)”.
